Results as given in PubChem BioAssay AID256 (DTP/NCI, 2004).
“And” between values parts separate entries of the source, which are not always exact repeats. Identical values can stand only once. Inconclusive results and toxic doses are left out.

Tested on: CD2F1 mice, L1210 leukemia ip, survival T/C
Test: NCI In Vivo Anticancer Drug Screen. Data for tumor model L1210 Leukemia (intraperitoneal) in CD2F1 (CDF1) mice
Conditions: endpoint: mean survival time, higher = longer survival
In short: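 Mice carrying a transplanted tumor received test compound or vehicle alone. The value is the measurement in the treated group divided by that in the vehicle-treated control group.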

[1] = dose: 25.0 mg/kg/injection, schedule: Q01DX009 (ip), vehicle: saline with Tween-80
[2] = dose: 50.0 mg/kg/injection, schedule: Q01DX009 (ip), vehicle: saline with Tween-80
[3] = dose: 100.0 mg/kg/injection, schedule: Q01DX001 (ip), vehicle: saline with Tween-80
[4] = dose: 100.0 mg/kg/injection, schedule: Q01DX009 (ip), vehicle: saline with Tween-80
[5] = dose: 100.0 mg/kg/injection, schedule: Q04DX003 (ip), vehicle: saline with Tween-80
[6] = dose: 200.0 mg/kg/injection, schedule: Q04DX003 (ip), vehicle: saline with Tween-80
[7] = dose: 400.0 mg/kg/injection, schedule: Q04DX003 (ip), vehicle: saline with Tween-80
[8] = dose: 100.0 mg/kg/injection, schedule: Q04DX002 (ip), vehicle: saline with Tween-80
[9] = dose: 100.0 mg/kg/injection, schedule: Q04DX003 (ip), vehicle: saline
[10] = dose: 12.5 mg/kg/injection, schedule: Q01DX009 (ip), vehicle: other
[11] = dose: 25.0 mg/kg/injection, schedule: Q01DX009 (ip), vehicle: other
[12] = dose: 50.0 mg/kg/injection, schedule: Q01DX009 (ip), vehicle: other
[13] = dose: 100.0 mg/kg/injection, schedule: Q01DX009 (ip), vehicle: other
[14] = dose: 200.0 mg/kg/injection, schedule: Q01DX009 (ip), vehicle: other
[15] = dose: 200.0 mg/kg/injection, schedule: Q04DX003 (ip), vehicle: saline
[16] = dose: 400.0 mg/kg/injection, schedule: Q04DX003 (ip), vehicle: saline
[17] = dose: 200.0 mg/kg/injection, schedule: Q01DX001 (ip), vehicle: saline with Tween-80
[18] = dose: 400.0 mg/kg/injection, schedule: Q01DX001 (ip), vehicle: saline with Tween-80
[19] = dose: 200.0 mg/kg/injection, schedule: Q01DX009 (ip), vehicle: saline with Tween-80
[20] = dose: 100.0 mg/kg/injection, schedule: Q01DX001 (ip), vehicle: saline
[21] = dose: 200.0 mg/kg/injection, schedule: Q01DX001 (ip), vehicle: saline
[22] = dose: 400.0 mg/kg/injection, schedule: Q01DX001 (ip), vehicle: saline
[23] = dose: 25.0 mg/kg/injection, schedule: Q04DX003 (ip), vehicle: saline with Tween-80

In the case of `CC[N+](C)(CC)Cc1ccc([NH-])c([NH-])c1.[Cl][Pt+2][Cl]`, the T/C (dose: 3.13 mg/kg/injection, schedule: Q04DX003 (ip), vehicle: water) is reported as 90 % of control, the T/C (dose: 6.25 mg/kg/injection, schedule: Q04DX003 (ip), vehicle: water) is reported as 95 % of control and the T/C (dose: 12.5 mg/kg/injection, schedule: Q04DX003 (ip), vehicle: water) is reported as 94 % of control.
In the case of `COC(=O)c1cc2ccccc2[nH]c1=O`, the T/C (dose: 75.0 mg/kg/injection, schedule: Q01DX001 (ip), vehicle: other) is reported as 97 % of control, the T/C (dose: 150.0 mg/kg/injection, schedule: Q01DX001 (ip), vehicle: other) is reported as 96 % of control and the T/C (dose: 300.0 mg/kg/injection, schedule: Q01DX001 (ip), vehicle: other) is reported as 97 % of control.
For `CC(C)(C)CC(C)(C)c1ccc(O)cc1O`, the T/C [1] was 105 % of control, the T/C [2] was 103 % of control and the T/C [3] was 101 % of control. The T/C [4] was 94 % of control.
With `CCCCC(NCCNC(CCCC)C(=O)O)C(=O)O` (stereo not drawn) the T/C [5] was 102 % of control, the T/C [6] was 91 % of control and the T/C [7] was 107 % of control.
With `C=C(C(=O)OC)N1C(=O)CC(C)C1=O` (stereo not drawn) the T/C (dose: 12.5 mg/kg/injection, schedule: Q04DX002 (ip), vehicle: saline with Tween-80) was 97 % of control, the T/C (dose: 25.0 mg/kg/injection, schedule: Q04DX002 (ip), vehicle: saline with Tween-80) was 108 % of control and the T/C (dose: 50.0 mg/kg/injection, schedule: Q04DX002 (ip), vehicle: saline with Tween-80) was 90 % of control. For the same molecule, the T/C [8] was 86 % of control.
`O=c1[nH]c(=O)n(C2CC(O)C(CO)O2)cc1C1SCCS1` (stereo not drawn) was tested, and the T/C (dose: 3.8 mg/kg/injection, schedule: Q01DX005 (ip), vehicle: water) was 102 % of control, the T/C (dose: 7.5 mg/kg/injection, schedule: Q01DX005 (ip), vehicle: water) was 98 % of control and the T/C (dose: 15.0 mg/kg/injection, schedule: Q01DX005 (ip), vehicle: water) was 95 % of control. For the same molecule, the T/C (dose: 30.0 mg/kg/injection, schedule: Q01DX005 (ip), vehicle: water) was 87 % of control and the T/C (dose: 60.0 mg/kg/injection, schedule: Q01DX005 (ip), vehicle: water) was 106 % of control.
For `COc1ccc(C(=O)NC[n+]2ccccc2)cc1`, the T/C [9] was 109 % of control.
`COc1ccc(C(=O)NCCc2ccc(OC)c(OC)c2)cc1O` was tested, and the T/C [10] was 100 % of control, the T/C [11] was 94 % of control and the T/C [12] was 96 % of control. The T/C [13] was 90 % of control and the T/C [14] was 96 % of control.
For `COP(=O)(O)c1ccccc1` (tested in a mixture with another compound), the T/C [9] was 103 % of control, the T/C [15] was 106 % of control and the T/C [16] was 95 % of control.
For `COc1ccc(C2=CSc3ccccc3N2)cc1`, the T/C [8] was 96 % of control and the T/C (dose: 200.0 mg/kg/injection, schedule: Q04DX002 (ip), vehicle: saline with Tween-80) was 104 % of control.
In the case of `CC(C)(C)C1=CC(=O)C(C(C)(C)C)=C(N=[N+]=[N-])C1=O`, the T/C [3] is reported as 101 % of control, the T/C [17] is reported as 97 % of control and the T/C [18] is reported as 97 % of control.
With `c1ccc2nc(-c3cc4ccccc4s3)ccc2c1` the T/C [4] was 103 % of control, the T/C [5] was 107 % of control and the T/C [19] was 100 % of control. For the same molecule, the T/C [6] was 101 % of control, the T/C (dose: 400.0 mg/kg/injection, schedule: Q01DX009 (ip), vehicle: saline with Tween-80) was 97 % of control and the T/C [7] was 96 % of control.
In the case of `CC(=O)OCC1OC(OC(C)=O)C(NC(=O)NCCI)C(OC(C)=O)C1OC(C)=O` (stereo not drawn), the T/C [10] is reported as 93 % of control, the T/C [11] is reported as 95 % of control and the T/C [12] is reported as 92 % of control. For the same molecule, the T/C [13] was 88 % of control and the T/C [14] was 98 % of control.
In the case of `BrCC12CCC1(CBr)COC2` (stereo not drawn), the T/C (dose: 100.0 mg/kg/injection, schedule: Q04DX003 (ip), vehicle: other) is reported as 102 % of control, the T/C (dose: 200.0 mg/kg/injection, schedule: Q04DX003 (ip), vehicle: other) is reported as 107 % of control and the T/C (dose: 400.0 mg/kg/injection, schedule: Q04DX003 (ip), vehicle: other) is reported as 96 % of control.
In the case of `CC(=O)OC1CCC2(C)C3CCC4(C)C(OC(=O)c5ccccc5)CCC4C3C3C(=O)OC32C1` (stereo not drawn), the T/C [3] is reported as 91 % of control, the T/C [17] is reported as 90 % of control and 96 % of control and the T/C [18] is reported as 88 % of control.
`Nc1nc(N)nc(Cc2ccccc2)n1` was tested, and the T/C [3] was 104 % of control, the T/C [17] was 103 % of control and the T/C [18] was 95 % of control.
In the case of `CC(C)C(S(=O)(=O)c1ccccc1)S(=O)(=O)c1ccccc1`, the T/C [20] is reported as 105 % of control, the T/C [21] is reported as 103 % of control and the T/C [22] is reported as 96 % of control.
In the case of `S=c1[n-]c2ccccc2s1.S=c1[n-]c2ccccc2s1.[Cl][Pt+2][Cl]`, the T/C [23] is reported as 95 % of control, the T/C (dose: 50.0 mg/kg/injection, schedule: Q04DX003 (ip), vehicle: saline with Tween-80) is reported as 88 % of control and the T/C [5] is reported as 93 % of control. For the same molecule, the T/C [6] was 90 % of control.
For `CC(C(=O)c1ccccc1)C(N[N+](C)(C)C)c1ccccc1` (stereo not drawn), the T/C [23] was 96 % of control.
`CC(O)CN1CC(C)OC(C)C1` (stereo not drawn) was tested, and the T/C (dose: 100.0 mg/kg/injection, schedule: Q01DX009 (ip), vehicle: saline) was 100 % of control, the T/C [9] was 103 % of control and the T/C (dose: 200.0 mg/kg/injection, schedule: Q01DX009 (ip), vehicle: saline) was 100 % of control. The T/C [15] was 103 % of control, the T/C (dose: 400.0 mg/kg/injection, schedule: Q01DX009 (ip), vehicle: saline) was 100 % of control and the T/C [16] was 101 % of control.
For `CC1(C)C=CC(C)(C)c2c(NS(=O)(=O)c3ccccc3)ccc(NS(=O)(=O)c3ccccc3)c21`, the T/C [5] was 98 % of control and the T/C [7] was 96 % of control.
With `CCN1CC2CCC(C(=O)O)(C2)C1=O` (stereo not drawn) the T/C [20] was 98 % of control, the T/C [21] was 106 % of control and the T/C [22] was 102 % of control.
For `Nc1cc2c3c(cccc3c1)C(=O)N(CCN1CCCC1)C2=O`, the T/C (dose: 3.12 mg/kg/injection, schedule: Q01DX009 (ip), vehicle: saline with Tween-80) was 96 % of control and 102 % of control, the T/C (dose: 6.25 mg/kg/injection, schedule: Q01DX009 (ip), vehicle: saline with Tween-80) was 101 % of control and 107 % of control and the T/C (dose: 12.5 mg/kg/injection, schedule: Q01DX009 (ip), vehicle: saline with Tween-80) was 117 % of control and 110 % of control. The T/C [1] was 113 % of control and 119 % of control and 111 % of control, the T/C [2] was 175 % of control and the T/C [4] was 86 % of control. For the same molecule, the T/C [19] was 91 % of control.
`CCOC1CC(C)C=CO1` (stereo not drawn) was tested, and the T/C (dose: 100.0 mg/kg/injection, schedule: Q01DX001 (ip), vehicle: saline + alcohol) was 108 % of control, the T/C (dose: 200.0 mg/kg/injection, schedule: Q01DX001 (ip), vehicle: saline + alcohol) was 104 % of control and the T/C (dose: 400.0 mg/kg/injection, schedule: Q01DX001 (ip), vehicle: saline + alcohol) was 96 % of control.
`COC(=O)c1ccccc1Cn1c(C)cnc1C` was tested, and the T/C (dose: 12.5 mg/kg/injection, schedule: Q01DX009 (ip), vehicle: saline) was 101 % of control, the T/C (dose: 25.0 mg/kg/injection, schedule: Q01DX009 (ip), vehicle: saline) was 93 % of control and the T/C (dose: 50.0 mg/kg/injection, schedule: Q01DX009 (ip), vehicle: saline) was 101 % of control and 105 % of control.
For `O=C(O)Cc1cc(=O)oc2ccccc12`, the T/C [3] was 104 % of control, the T/C [17] was 104 % of control and the T/C [18] was 96 % of control.
`CCCSC(=O)Nc1cccc(OC(=O)NC)c1` was tested, and the T/C [5] was 99 % of control, the T/C [6] was 94 % of control and the T/C [7] was 99 % of control.
For `Cc1c(OCc2ccccc2)cccc1[N+](=O)[O-]`, the T/C [13] was 97 % of control, the T/C [5] was 92 % of control and the T/C [14] was 105 % of control. The T/C [6] was 87 % of control, the T/C (dose: 400.0 mg/kg/injection, schedule: Q01DX009 (ip), vehicle: other) was 112 % of control and the T/C [7] was 90 % of control.
For `O=C(O)CNC(=O)C(Br)Cc1ccccc1` (stereo not drawn), the T/C [5] was 101 % of control, the T/C [6] was 101 % of control and the T/C [7] was 103 % of control.
